Measured values reported in ChEMBL document CHEMBL1909046, “DrugMatrix in vitro pharmacology data”.

What was measured:
Acetylcholinesterase = Acetylcholinesterase (Homo sapiens, UniProt P22303); assay: DRUGMATRIX: Acetylcholinesterase enzyme inhibition (substrate: acetylthiocholine); type: cell-based, HEK293; conditions: hek293; Not Active = under 50% inhibition at 10 µM
[1] = molecular target: Tyrosine-protein kinase Lck (Homo sapiens, UniProt P06239); assay: DRUGMATRIX: Protein Tyrosine Kinase, LCK enzyme inhibition (substrate: Poly(Glu:Tyr)); type: cell-based, Insect cells; conditions: Not Active = under 50% inhibition at 10 µM
Tyrosine-protein kinase Lck, sequence (P06239 whole entry): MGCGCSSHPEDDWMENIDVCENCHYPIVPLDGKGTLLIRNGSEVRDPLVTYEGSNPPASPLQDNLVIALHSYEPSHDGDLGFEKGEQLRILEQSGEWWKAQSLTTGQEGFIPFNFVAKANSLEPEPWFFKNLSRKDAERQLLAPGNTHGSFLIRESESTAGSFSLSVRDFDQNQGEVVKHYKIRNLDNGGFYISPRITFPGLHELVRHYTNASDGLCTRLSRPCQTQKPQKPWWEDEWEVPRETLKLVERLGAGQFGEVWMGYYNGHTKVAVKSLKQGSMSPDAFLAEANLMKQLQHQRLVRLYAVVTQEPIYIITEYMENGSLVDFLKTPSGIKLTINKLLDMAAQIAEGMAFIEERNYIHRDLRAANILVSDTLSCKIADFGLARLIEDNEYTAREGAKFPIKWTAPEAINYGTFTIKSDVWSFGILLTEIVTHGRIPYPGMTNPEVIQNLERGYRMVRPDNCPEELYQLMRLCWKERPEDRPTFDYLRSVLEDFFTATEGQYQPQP

Substance-P receptor = Substance-P receptor (Homo sapiens, UniProt P25103); type: cell membranes, CHO, Membrane; conditions: cho; note: in other assays of this panel Not Active means under 50% inhibition at 10 µM
Substance-P receptor, sequence (P25103 whole entry): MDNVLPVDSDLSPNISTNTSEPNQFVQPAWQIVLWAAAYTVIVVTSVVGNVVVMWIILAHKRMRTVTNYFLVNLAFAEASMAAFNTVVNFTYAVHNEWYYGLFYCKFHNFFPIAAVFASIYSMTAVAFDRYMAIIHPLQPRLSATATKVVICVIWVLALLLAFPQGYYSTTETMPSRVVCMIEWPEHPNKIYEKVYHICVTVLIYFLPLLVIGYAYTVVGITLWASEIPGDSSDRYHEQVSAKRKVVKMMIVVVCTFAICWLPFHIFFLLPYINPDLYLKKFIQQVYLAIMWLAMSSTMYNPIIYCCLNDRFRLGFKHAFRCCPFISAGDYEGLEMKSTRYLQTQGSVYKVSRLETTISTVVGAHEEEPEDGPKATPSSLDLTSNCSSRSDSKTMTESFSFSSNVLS

Cathepsin G = molecular target: T1, Cathepsin G (Homo sapiens, UniProt P08311); type: tissue-based; conditions: neutrophil;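 note: inhibition of Cathepsin G enzyme activity, tested on an AMC-conjugated peptide substrate; in other assays of this panel Not Active means under 50% inhibition at 10 µM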
T1 sequence (P08311 whole entry): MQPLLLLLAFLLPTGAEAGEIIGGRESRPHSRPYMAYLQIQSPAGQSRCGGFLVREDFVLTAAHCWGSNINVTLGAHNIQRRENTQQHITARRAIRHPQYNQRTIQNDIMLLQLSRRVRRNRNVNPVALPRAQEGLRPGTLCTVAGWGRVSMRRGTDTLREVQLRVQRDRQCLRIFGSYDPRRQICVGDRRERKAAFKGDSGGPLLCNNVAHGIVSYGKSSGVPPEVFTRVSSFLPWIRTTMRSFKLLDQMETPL

[2] = molecular target: T2, 5-hydroxytryptamine receptor 2C (Homo sapiens, UniProt P28335); assay: DRUGMATRIX: Serotonin (5-Hydroxytryptamine) 5-HT2C radioligand binding (ligand: [3H] Mesulergine); type: cell membranes, CHO-K1, Membrane; conditions: cho-k1; Not Active = under 50% inhibition at 10 µM
T2 sequence (P28335 whole entry): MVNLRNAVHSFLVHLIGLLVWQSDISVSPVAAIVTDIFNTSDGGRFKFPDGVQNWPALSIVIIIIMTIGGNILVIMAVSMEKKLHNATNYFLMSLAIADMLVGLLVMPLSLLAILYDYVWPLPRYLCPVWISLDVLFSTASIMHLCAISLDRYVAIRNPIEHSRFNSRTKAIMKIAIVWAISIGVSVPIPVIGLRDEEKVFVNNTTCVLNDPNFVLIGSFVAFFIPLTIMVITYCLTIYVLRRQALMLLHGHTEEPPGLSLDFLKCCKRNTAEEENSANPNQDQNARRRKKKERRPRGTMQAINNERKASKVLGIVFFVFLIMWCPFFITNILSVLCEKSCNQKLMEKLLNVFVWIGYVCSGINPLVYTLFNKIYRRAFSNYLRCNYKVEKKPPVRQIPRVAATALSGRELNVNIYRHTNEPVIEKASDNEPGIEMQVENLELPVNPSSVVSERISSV

[3] = DRUGMATRIX: Purinergic P2X radioligand binding (ligand: [3H] alpha, beta-Methylene-ATP); type: cell membranes, Oryctolagus cuniculus, New Zealand albino, Urinary bladder, Membrane; conditions: Not Active = under 50% inhibition at 10 µM
[4] = molecular target: T3, Muscarinic acetylcholine receptor M2 (Homo sapiens, UniProt P08172); type: cell membranes, CHO-K1, Membrane; conditions: cho-k1; note: in other assays of this panel Not Active means under 50% inhibition at 10 µM
T3 sequence (P08172 whole entry): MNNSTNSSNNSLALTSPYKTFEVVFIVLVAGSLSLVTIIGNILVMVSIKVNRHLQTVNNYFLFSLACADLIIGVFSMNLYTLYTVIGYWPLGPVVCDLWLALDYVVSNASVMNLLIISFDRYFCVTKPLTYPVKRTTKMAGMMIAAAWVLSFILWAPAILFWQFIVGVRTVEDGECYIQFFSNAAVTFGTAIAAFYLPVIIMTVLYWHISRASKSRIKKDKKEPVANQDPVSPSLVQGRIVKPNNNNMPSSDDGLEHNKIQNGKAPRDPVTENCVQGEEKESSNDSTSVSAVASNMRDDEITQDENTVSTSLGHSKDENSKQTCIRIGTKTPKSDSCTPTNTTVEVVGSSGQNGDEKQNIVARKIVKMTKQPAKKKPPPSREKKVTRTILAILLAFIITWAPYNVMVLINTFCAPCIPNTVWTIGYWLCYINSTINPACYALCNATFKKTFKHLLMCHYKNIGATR

Glycine receptor = Glycine receptor (Rattus norvegicus, UniProt P22771+P24524+P07727+P20781); type: cell membranes, Wistar, Spinal cord, Membrane; note: in other assays of this panel Not Active means under 50% inhibition at 10 µM
Adenosine receptor A1 = molecular target: T4, Adenosine receptor A1 (Homo sapiens, UniProt P30542); type: cell membranes, CHO, Membrane; conditions: cho
T4 sequence (P30542 whole entry): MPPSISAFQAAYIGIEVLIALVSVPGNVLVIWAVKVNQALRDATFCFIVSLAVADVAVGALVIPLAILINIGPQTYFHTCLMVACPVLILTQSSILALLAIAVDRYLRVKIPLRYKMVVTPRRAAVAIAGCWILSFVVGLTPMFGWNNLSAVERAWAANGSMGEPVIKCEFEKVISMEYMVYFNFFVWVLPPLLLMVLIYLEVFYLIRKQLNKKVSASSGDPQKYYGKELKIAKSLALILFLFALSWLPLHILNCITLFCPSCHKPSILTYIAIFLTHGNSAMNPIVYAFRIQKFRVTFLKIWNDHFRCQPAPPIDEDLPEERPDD

[5] = DRUGMATRIX: ATPase, Na+/K+ enzyme inhibition (substrate: ATP); type: tissue-based, Sus scrofa, Heart; conditions: Not Active = under 50% inhibition at 10 µM
Neutrophil elastase = molecular target: T5, Neutrophil elastase (Homo sapiens, UniProt P08246); type: tissue-based
T5 sequence (P08246 whole entry): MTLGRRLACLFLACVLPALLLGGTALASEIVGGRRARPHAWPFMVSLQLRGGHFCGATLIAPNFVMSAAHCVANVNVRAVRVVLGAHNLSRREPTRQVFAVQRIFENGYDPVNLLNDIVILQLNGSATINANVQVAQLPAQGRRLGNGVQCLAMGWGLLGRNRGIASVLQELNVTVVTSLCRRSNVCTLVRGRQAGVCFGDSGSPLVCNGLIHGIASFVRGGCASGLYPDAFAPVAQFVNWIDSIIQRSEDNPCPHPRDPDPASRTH

[6] = DRUGMATRIX: Interleukin IL-1 radioligand binding (ligand: [125I] interleukin 1beta); type: cell membranes, Membrane; conditions: nih3t3; Not Active = under 50% inhibition at 10 µM
Melanocortin receptor 5 = Melanocortin receptor 5 (Homo sapiens, UniProt P33032); type: cell membranes, HEK293, Membrane; conditions: hek293; note: in other assays of this panel Not Active means under 50% inhibition at 10 µM
Melanocortin receptor 5, sequence (P33032 whole entry): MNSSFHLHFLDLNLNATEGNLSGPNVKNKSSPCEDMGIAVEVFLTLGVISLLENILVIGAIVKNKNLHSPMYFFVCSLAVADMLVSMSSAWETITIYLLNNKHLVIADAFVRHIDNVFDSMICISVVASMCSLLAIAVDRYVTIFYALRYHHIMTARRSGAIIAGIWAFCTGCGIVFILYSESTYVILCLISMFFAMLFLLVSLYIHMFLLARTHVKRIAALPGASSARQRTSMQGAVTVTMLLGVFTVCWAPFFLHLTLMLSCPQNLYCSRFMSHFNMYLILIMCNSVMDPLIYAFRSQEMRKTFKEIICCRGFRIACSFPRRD

Acetylcholinesterase, sequence (P22303 whole entry): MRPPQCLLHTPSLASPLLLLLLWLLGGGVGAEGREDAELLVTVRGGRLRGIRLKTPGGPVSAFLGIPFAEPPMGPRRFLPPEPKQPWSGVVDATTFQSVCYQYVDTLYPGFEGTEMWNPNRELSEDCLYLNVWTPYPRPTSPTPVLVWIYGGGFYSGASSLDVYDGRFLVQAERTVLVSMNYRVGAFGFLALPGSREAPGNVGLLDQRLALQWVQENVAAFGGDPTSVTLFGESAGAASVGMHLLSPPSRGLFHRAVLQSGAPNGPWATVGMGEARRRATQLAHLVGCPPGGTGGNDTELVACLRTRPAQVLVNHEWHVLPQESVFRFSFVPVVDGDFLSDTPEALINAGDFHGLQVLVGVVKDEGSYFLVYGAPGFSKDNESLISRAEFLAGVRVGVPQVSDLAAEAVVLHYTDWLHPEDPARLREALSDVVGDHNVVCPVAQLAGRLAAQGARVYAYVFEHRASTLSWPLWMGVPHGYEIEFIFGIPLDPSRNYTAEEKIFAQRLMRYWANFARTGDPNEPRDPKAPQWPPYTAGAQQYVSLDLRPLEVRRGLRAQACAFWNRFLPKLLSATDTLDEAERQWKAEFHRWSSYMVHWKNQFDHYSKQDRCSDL

Row | SMILES | IC50 (Acetylcholinesterase) | IC50 ([1]; read-out: IC50) | IC50 (Substance-P receptor) | IC50 (Cathepsin G) | IC50 [2] | IC50 [3] | Ki [3] | IC50 [4] | IC50 (Glycine receptor) | IC50 (Adenosine receptor A1) | IC50 [5] | Ki [5] | IC50 (Neutrophil elastase) | IC50 [6] | Ki [6] | IC50 (Melanocortin receptor 5) | IC50 ([1]; insect cells)
1 | Oc1c(I)cc(I)c2cccnc12 [IODOQUINOL] | Not Active | 2460 nM | Not Active | Not Active | Not Active | Not Active | Not Active | Not Active | Not Active | Not Active | Not Active | Not Active | Not Active | Not Active | Not Active | Not Active | –
2 | NNC(=O)c1ccncc1 [ISONIAZID] | Not Active | – | Not Active | Not Active | Not Active | Not Active | Not Active | Not Active | Not Active | Not Active | Not Active | Not Active | Not Active | Not Active | Not Active | Not Active | Not Active
3 | CC1=C(/C=C/C(C)=C/C=C/C(C)=C\C(=O)O)C(C)(C)CCC1 [ISOTRETINOIN] | Not Active | – | Not Active | Not Active | Not Active | Not Active | Not Active | Not Active | Not Active | Not Active | Not Active | Not Active | Not Active | Not Active | Not Active | Not Active | Not Active
4 | CO[C@@H]1[C@@H](O[C@@H]2O[C@H](C)[C@@H](O[C@H]3C[C@@](C)(O)[C@@H](OC(=O)CC(C)C)[C@H](C)O3)[C@H](N(C)C)[C@H]2O)[C@@H](CC=O)C[C@@H](C)[C@@H](O)/C=C/C=C/C[C@@H](C)OC(=O)C[C@H]1O [KITASAMYCIN] | Not Active | – | Not Active | Not Active | Not Active | Not Active | Not Active | Not Active | Not Active | Not Active | Not Active | Not Active | Not Active | Not Active | Not Active | Not Active | Not Active
5 | CC(CCc1ccccc1)NCC(O)c1ccc(O)c(C(N)=O)c1 (stereo not given) [LABETALOL] | Not Active | – | Not Active | Not Active | Not Active | Not Active | Not Active | Not Active | Not Active | Not Active | Not Active | Not Active | Not Active | Not Active | Not Active | Not Active | Not Active
